Measurements: PubChem BioAssay AID248 (DTP/NCI, 2004)
Several values for one entry are separate records, joined by “and”; a condition that tells them apart may be missing. Identical values can stand only once. Toxic doses and inconclusive results are not listed. Cut-off read from the data, not from the text of the source: active = T/C of 150% or more; inactive = T/C below 125%.

System: L1210 leukemia ip in BDF1 mice, survival T/C
Experiment: NCI In Vivo Anticancer Drug Screen. Data for tumor model L1210 Leukemia (intraperitoneal) in B6D2F1 (BDF1) mice
Conditions: endpoint: mean survival time, higher = longer survival
Outline: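 Transplanted-tumor mice were given test agent; controls received vehicle only. Survival readings from the two groups were divided (treated over control).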

[1] = dose: 50.0 mg/kg/injection, schedule: Q01DX001 (ip), vehicle: saline
[2] = dose: 100.0 mg/kg/injection, schedule: Q01DX001 (ip), vehicle: saline
[3] = dose: 200.0 mg/kg/injection, schedule: Q01DX001 (ip), vehicle: saline
[4] = dose: 100.0 mg/kg/injection, schedule: Q04DX003 (ip), vehicle: carboxymethylcellulose (CMC)
[5] = dose: 100.0 mg/kg/injection, schedule: Q04DX003 (ip), vehicle: saline with Tween-80
[6] = dose: 200.0 mg/kg/injection, schedule: Q04DX003 (ip), vehicle: carboxymethylcellulose (CMC)
[7] = dose: 200.0 mg/kg/injection, schedule: Q04DX003 (ip), vehicle: saline with Tween-80
[8] = dose: 400.0 mg/kg/injection, schedule: Q04DX003 (ip), vehicle: carboxymethylcellulose (CMC)
[9] = dose: 400.0 mg/kg/injection, schedule: Q04DX003 (ip), vehicle: saline with Tween-80
[10] = dose: 400.0 mg/kg/injection, schedule: Q01DX001 (ip), vehicle: saline
[11] = dose: 50.0 mg/kg/injection, schedule: Q01DX009 (ip), vehicle: saline with Tween-80
[12] = dose: 100.0 mg/kg/injection, schedule: Q01DX009 (ip), vehicle: saline with Tween-80
[13] = dose: 200.0 mg/kg/injection, schedule: Q01DX009 (ip), vehicle: saline with Tween-80
[14] = dose: 400.0 mg/kg/injection, schedule: Q01DX009 (ip), vehicle: saline with Tween-80
[15] = dose: 12.5 mg/kg/injection, schedule: Q01DX009 (ip), vehicle: saline with Tween-80
[16] = dose: 25.0 mg/kg/injection, schedule: Q01DX009 (ip), vehicle: saline with Tween-80
[17] = dose: 100.0 mg/kg/injection, schedule: Q01DX009 (ip), vehicle: Klucel (hydroxypropylcellulose) (HPC)
[18] = dose: 200.0 mg/kg/injection, schedule: Q01DX009 (ip), vehicle: Klucel (hydroxypropylcellulose) (HPC)
[19] = dose: 400.0 mg/kg/injection, schedule: Q01DX009 (ip), vehicle: Klucel (hydroxypropylcellulose) (HPC)

Measured: T/C

NC(N)=N/N=C/c1ccc(Cl)cc1Cl
inactive: dose: 30.0 mg/kg/injection, schedule: Q01DX010 (oral), vehicle: saline 102 % of control | dose: 44.0 mg/kg/injection, schedule: Q01DX010 (oral), vehicle: saline 100 % of control | [1] 100 % of control | dose: 63.0 mg/kg/injection, schedule: Q01DX Z (ip), vehicle: saline 101 % of control | dose: 66.0 mg/kg/injection, schedule: Q01DX010 (oral), vehicle: saline 104 % of control | dose: 99.0 mg/kg/injection, schedule: Q01DX010 (oral), vehicle: saline 98 % of control | [2] 106 % of control | [3] 108 % of control

O=[N+]([O-])c1cc(S(=O)(=O)O)ccc1Cl
inactive: [4] 100 % of control | [5] 98 % of control | [6] 101 % of control | [7] 102 % of control | [8] 97 % of control | [9] 101 % of control

CCCCCCCC1CCCCC1
inactive: [1] 101 % of control | [2] 98 % of control | [3] 101 % of control | [10] 98 % of control

C/C=C\c1ccc(OC(=O)NC)c(OC)c1
inactive: dose: 100.0 mg/kg/injection, schedule: Q01DX001 (ip), vehicle: carboxymethylcellulose (CMC) 99 % of control | dose: 100.0 mg/kg/injection, schedule: Q01DX009 (ip), vehicle: carboxymethylcellulose (CMC) 97 % of control and 104 % of control | dose: 100.0 mg/kg/injection, schedule: Q04DX002 (ip), vehicle: Klucel (hydroxypropylcellulose) (HPC) 100 % of control | dose: 100.0 mg/kg/injection, schedule: Q04DX002 (ip), vehicle: carboxymethylcellulose (CMC) 98 % of control and 104 % of control | [4] 96 % of control | dose: 200.0 mg/kg/injection, schedule: Q01DX001 (ip), vehicle: carboxymethylcellulose (CMC) 100 % of control | dose: 200.0 mg/kg/injection, schedule: Q01DX009 (ip), vehicle: carboxymethylcellulose (CMC) 103 % of control and 104 % of control | dose: 200.0 mg/kg/injection, schedule: Q04DX002 (ip), vehicle: Klucel (hydroxypropylcellulose) (HPC) 103 % of control | dose: 200.0 mg/kg/injection, schedule: Q04DX002 (ip), vehicle: carboxymethylcellulose (CMC) 98 % of control and 108 % of control | [6] 93 % of control | dose: 400.0 mg/kg/injection, schedule: Q01DX001 (ip), vehicle: carboxymethylcellulose (CMC) 99 % of control | dose: 400.0 mg/kg/injection, schedule: Q01DX009 (ip), vehicle: carboxymethylcellulose (CMC) 100 % of control and 101 % of control | dose: 400.0 mg/kg/injection, schedule: Q04DX002 (ip), vehicle: Klucel (hydroxypropylcellulose) (HPC) 103 % of control | dose: 400.0 mg/kg/injection, schedule: Q04DX002 (ip), vehicle: carboxymethylcellulose (CMC) 93 % of control and 98 % of control | [8] 93 % of control

O=C(Nc1ccc2c(c1)OCO2)O/N=C\c1ccccn1
inactive: [11] 103 % of control | [12] 86 % of control and 92 % of control | [5] 100 % of control | [13] 86 % of control and 92 % of control | [7] 101 % of control | [14] 91 % of control | [9] 95 % of control

O=C1CC2(CCCCC2)CO1
inactive: dose: 0.78 mg/kg/injection, schedule: Q04DX003 (ip), vehicle: saline 100 % of control | dose: 1.56 mg/kg/injection, schedule: Q04DX003 (ip), vehicle: saline 100 % of control | dose: 3.12 mg/kg/injection, schedule: Q04DX003 (ip), vehicle: saline 103 % of control | dose: 6.25 mg/kg/injection, schedule: Q04DX003 (ip), vehicle: saline 103 % of control | dose: 12.5 mg/kg/injection, schedule: Q04DX003 (ip), vehicle: saline 92 % of control

CCN(CC)CCCC(C)Nc1cc(C)nc2ccc(N(C)C)cc12 (stereo not given)
inactive: [15] 104 % of control | [16] 111 % of control | [11] 106 % of control

CCCCCCC(=O)/C=C/C=C/c1ccccc1
inactive: [17] 97 % of control | dose: 100.0 mg/kg/injection, schedule: Q04DX003 (ip), vehicle: Klucel (hydroxypropylcellulose) (HPC) 98 % of control | [18] 91 % of control | dose: 200.0 mg/kg/injection, schedule: Q04DX003 (ip), vehicle: Klucel (hydroxypropylcellulose) (HPC) 98 % of control | [19] 100 % of control | dose: 400.0 mg/kg/injection, schedule: Q04DX003 (ip), vehicle: Klucel (hydroxypropylcellulose) (HPC) 94 % of control

CNC(=O)OCCO
inactive: [2] 100 % of control | [3] 101 % of control | [10] 97 % of control

CCC/C=N/Nc1ccnc(SCc2ccccc2)n1
inactive: dose: 75.0 mg/kg/injection, schedule: Q01DX009 (ip), vehicle: DMSO 88 % of control

c1coc(NC2CCCCC2)n1
inactive: [12] 100 % of control | [13] 92 % of control | [14] 86 % of control

C=CC1(C)C=C2CCC3C(C)(C(=O)O)CCCC3(C)C2CC1 (stereo not given)
inactive: dose: 100.0 mg/kg/injection, schedule: Q04DX002 (ip), vehicle: saline with Tween-80 106 % of control | dose: 200.0 mg/kg/injection, schedule: Q04DX002 (ip), vehicle: saline with Tween-80 95 % of control

CSc1nsc2nnc(N)n12
inactive: dose: 75.0 mg/kg/injection, schedule: Q01DX001 (ip), vehicle: saline 89 % of control | dose: 150.0 mg/kg/injection, schedule: Q01DX001 (ip), vehicle: saline 102 % of control

CC(=O)N(C)c1ccc(NC(=O)Nc2ccccc2F)cc1
inactive: [17] 98 % of control | [18] 95 % of control | [19] 95 % of control

CC1/C(=N\O)CC2C3(C)CCC2(C(C)C(=O)O)C(=O)C13 (stereo not given)
inactive: dose: 100.0 mg/kg/injection, schedule: Q01DX001 (ip), vehicle: Klucel (hydroxypropylcellulose) (HPC) 100 % of control | dose: 200.0 mg/kg/injection, schedule: Q01DX001 (ip), vehicle: Klucel (hydroxypropylcellulose) (HPC) 100 % of control | dose: 400.0 mg/kg/injection, schedule: Q01DX001 (ip), vehicle: Klucel (hydroxypropylcellulose) (HPC) 92 % of control

c1cc2c(c(NC3=NCCCO3)c1)CCCC2
inactive: [15] 95 % of control | [16] 106 % of control | [11] 106 % of control | dose: 50.0 mg/kg/injection, schedule: Q04DX003 (ip), vehicle: saline with Tween-80 101 % of control

CC1C[N-]CC(C)C1.[CH-]=C(C)C.[Cl][Pt+2][Cl] (stereo not given)
inactive: dose: 50.0 mg/kg/injection, schedule: Q04DX003 (ip), vehicle: saline 115 % of control | dose: 100.0 mg/kg/injection, schedule: Q04DX003 (ip), vehicle: saline 111 % of control

CCCCC(C=NCC(CCCC)(CCN(C)C)c1cccc2ccccc12)(CCN(C)C)c1cccc2ccccc12 (stereo not given)
inactive: dose: 6.25 mg/kg/injection, schedule: Q04DX002 (ip), vehicle: Klucel (hydroxypropylcellulose) (HPC) 89 % of control | dose: 12.5 mg/kg/injection, schedule: Q04DX002 (ip), vehicle: Klucel (hydroxypropylcellulose) (HPC) 89 % of control | dose: 25.0 mg/kg/injection, schedule: Q04DX002 (ip), vehicle: Klucel (hydroxypropylcellulose) (HPC) 92 % of control
